This is an account of results in ChEMBL document CHEMBL1134433, “Discovery of a novel CCR3 selective antagonist” (Bioorg Med Chem Lett, 2001).

Holding throughout (type): cell-based
Experiment [1] concerns the target T1, C-C chemokine receptor type 3 (Homo sapiens, UniProt P51677).
T1 sequence (P51677 whole entry): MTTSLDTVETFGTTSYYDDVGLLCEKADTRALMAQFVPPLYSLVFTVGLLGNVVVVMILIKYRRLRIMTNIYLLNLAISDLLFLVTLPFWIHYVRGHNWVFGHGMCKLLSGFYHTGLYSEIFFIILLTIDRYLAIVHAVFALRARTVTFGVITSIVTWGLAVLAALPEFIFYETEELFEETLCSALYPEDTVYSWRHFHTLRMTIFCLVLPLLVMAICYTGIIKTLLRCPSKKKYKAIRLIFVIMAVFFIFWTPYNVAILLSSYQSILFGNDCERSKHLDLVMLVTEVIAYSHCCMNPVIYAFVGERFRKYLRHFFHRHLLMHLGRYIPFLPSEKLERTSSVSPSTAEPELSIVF
As to the kind of experiment: Concentration required for 50% inhibition of [125I]eotaxin binding to human CCR3 receptor expressed in CHO cells.

Experiment [2] deals with T2, C-C chemokine receptor type 1 (Homo sapiens, UniProt P32246).
T2 sequence (P32246 whole entry): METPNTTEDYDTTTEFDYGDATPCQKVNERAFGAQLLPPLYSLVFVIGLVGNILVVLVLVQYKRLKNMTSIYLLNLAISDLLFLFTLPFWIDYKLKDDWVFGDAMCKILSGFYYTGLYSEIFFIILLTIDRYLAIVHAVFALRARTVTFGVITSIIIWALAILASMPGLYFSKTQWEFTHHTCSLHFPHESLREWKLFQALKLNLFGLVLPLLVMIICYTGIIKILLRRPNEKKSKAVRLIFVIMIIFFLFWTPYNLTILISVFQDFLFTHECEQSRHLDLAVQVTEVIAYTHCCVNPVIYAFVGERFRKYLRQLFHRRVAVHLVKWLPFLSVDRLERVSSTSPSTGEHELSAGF
As to the kind of experiment: Concentration required for 50% inhibition of [125I]eotaxin binding to human CCR1 receptor expressed in CHO cells.

Experiment [3] has as its target T3, C-C chemokine receptor type 3 (Homo sapiens) (UniProt P51677).
T3 sequence (whole entry): T1 sequence (P51677 whole entry)
Kind of experiment: Percent inhibition of [125I]eotaxin binding to human CCR3 receptor expressed in CHO cells at 1 uM.

What is called IC50 is the concentration needed to halve the response being measured. For `Nc1ccc2nc(SCC(=O)NC3CCN(Cc4ccc(Cl)c(Cl)c4)CC3)sc2c1`, the results for the IC50 in experiment [1] and in experiment [2] were 2.3 nM and 1900 nM, respectively.
By inhibition is commonly meant the drop in the measured response relative to a control, in per cent. In experiment [3], `O=C(CSc1nc2ccccc2s1)NCC1CCCN(Cc2cccc3ccccc23)C1` (stereo not given) had an inhibition of 15%.
`CCCCCN1CCCC(CNC(=O)CSc2nc3ccccc3s2)C1` (stereo not given) yielded an inhibition in experiment [3] of 0%.
Compound `O=C(CSc1nc2ccccc2s1)NCC1CCCN(Cc2ccncc2)C1` (stereo not given) yielded an inhibition in experiment [3] of 0%.
Turning to `O=C(CSc1nc2ccccc2s1)NC1CCN(Cc2ccccc2)CC1`, the IC50 in experiment [1] came to 750 nM; in experiment [2], 7100 nM.
The compound `O=C(CSc1nc2ccccc2s1)NCC1CCCN(Cc2nccs2)C1` (stereo not given) displayed an inhibition in experiment [3] of 0%.
With `CCOc1ccc2nc(SCC(=O)NC3CCN(Cc4ccc(Cl)c(Cl)c4)CC3)sc2c1`, the results for the IC50 in experiment [1] and in experiment [2] were 20 nM and 3600 nM, respectively.
The corresponding values for `O=C(CSc1nc2ccccc2s1)NC1CCN(Cc2ccc(Cl)cc2)CC1` are 79 nM and 260 nM.
As to `CCOC(=O)c1ccc2nc(SCC(=O)NC3CCN(Cc4ccc(Cl)c(Cl)c4)CC3)sc2c1`, the IC50 in experiment [1] is 48 nM; in experiment [2] it was over 10000 nM.
`O=C(CSc1nc2ccccc2s1)NCC1CCCN(Cc2cccnc2)C1` (stereo not given) returned an inhibition in experiment [3] of 0%.
In experiment [1], `O=C(CSc1nc2ccccc2s1)NCC1CCCN(CC2CCCCC2)C1` (stereo not given) gave an IC50 of 1000 nM.
`O=C(CSc1nc2ccccc2s1)NC1CCN(Cc2cccc(Cl)c2)CC1`: the IC50 in experiment [1] was 280 nM; in experiment [2], over 10000 nM.
For `O=C(CSc1nc2ccccc2s1)NCC1CCCN(Cc2ccc3ccccc3c2)C1` (stereo not given), the inhibition in experiment [3] came to 5%.
In experiment [3], `CCCN1CCCC(CNC(=O)CSc2nc3ccccc3s2)C1` (stereo not given) yielded an inhibition of 30%.
In turn, `O=C(CSc1nc2ccccc2s1)NCC1CCCN(CCc2ccccc2)C1` (stereo not given) came in with an inhibition in experiment [3] of 0%.
`O=C(CSc1nc2ccccc2s1)NCC1CCCN(Cc2ccccc2)C1` (stereo not given): the IC50 in experiment [1] was determined as 1000 nM; in experiment [2] it was 4200 nM.
Take `O=C(CSc1nc2ccccc2s1)NC1CCN(Cc2ccc(Cl)c(Cl)c2)CC1`: the values for the IC50 in experiment [1] and in experiment [2] were 32 nM and 450 nM, respectively.
